According to patent publication US9409884B2 (Rigel Pharmaceuticals, Inc., priority 2012, dated 2016):

biological target: AMPK; assay: AMPK activation, enzyme-linked immunosorbent assay; assay type: biochemical; settings: Table 11, compounds of Table 4
How it was run: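 AMPK activation by test compounds was measured by enzyme-linked immunosorbent assay.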

EC50 [nM]	Compound
< 500	N#Cc1ccc(CN2CCC(NC(=O)c3ccc(C(=O)N4CCN(Cc5ccc(C(F)(F)F)cc5)CC4)cn3)CC2)cc1 [Compound 4-3, N-(1-(4-cyanobenzyl)piperidin-4-yl)-5-(4-(4-(trifluoromethyl)benzyl)piperazine-1-carbonyl)picolinamide]
1000 to 5000	O=C(N[C@H]1CCN(Cc2ccc(F)cc2)C1)c1ccc(C(=O)N2CCN(c3ccc(Cl)cc3)CC2)cn1 [Compound 4-4, (S)-5-(4-(4-chlorophenyl)piperazine-1-carbonyl)-N-(1-(4-fluorobenzyl)pyrrolidin-3-yl)picolinamide]
1000 to 5000	O=C(N[C@H]1CCN(Cc2ccncc2)C1)c1ccc(C(=O)N2CCN(c3ccc(Cl)cc3)CC2)cn1 [Compound 4-5, (S)-5-(4-(4-chlorophenyl)piperazine-1-carbonyl)-N-(1-(pyridin-4-ylmethyl)pyrrolidin-3-yl)picolinamide]
500 to 1000	N#Cc1ccc(CN2CC[C@H](NC(=O)c3ccc(C(=O)N4CCN(c5ccc(Cl)cc5)CC4)cn3)C2)cc1 [Compound 4-6, (S)-5-(4-(4-chlorophenyl)piperazine-1-carbonyl)-N-(1-(4-cyanobenzyl)pyrrolidin-3-yl)picolinamide]
1000 to 5000	O=C(NC1CCN(Cc2ccc(Cl)cc2)C1)c1ccc(C(=O)N2CCN(c3ccc(Cl)cc3)CC2)cn1 (stereo not drawn) [Compound 4-7, N-(1-(4-chlorobenzyl)pyrrolidin-3-yl)-5-(4-(4-chlorophenyl)piperazine-1-carbonyl)picolinamide]
1000 to 5000	O=C(NC1CCN(Cc2ccc(C(F)(F)F)cc2)C1)c1ccc(C(=O)N2CCN(c3ccc(Cl)cc3)CC2)cn1 (stereo not drawn) [Compound 4-8, 5-(4-(4-chlorophenyl)piperazine-1-carbonyl)-N-(1-(4-(trifluoromethyl)benzyl)pyrrolidin-3-yl)picolinamide]
500 to 1000	N#Cc1ccc(CN2CCC(NC(=O)c3ccc(C(=O)N4CCN(c5ccc(S(=O)(=O)N6CCCC6)cc5)CC4)nc3)CC2)cc1 [Compound 4-9, N-(1-(4-cyanobenzyl)piperidin-4-yl)-6-(4-(4-(pyrrolidin-1-ylsulfonyl)phenyl)piperazine-1-carbonyl)nicotinamide]
< 500	CC(C)S(=O)(=O)c1ccc(N2CCN(C(=O)c3ccc(C(=O)NC4CCN(Cc5ccc(OC(F)(F)F)cc5)C[C@H]4F)cn3)CC2)cc1 (stereo partly drawn) [Compound 4-11, N-((3,4-trans)-3-fluoro-1-(4-(trifluoromethoxy)benzyl)piperidin-4-yl)-6-(4-(4-(isopropylsulfonyl)phenyl)piperazine-1-carbonyl)nicotinamide]
< 500	N#Cc1ccc(CN2CCC(NC(=O)c3ccc(C(=O)N4CCN(c5ccc(C(=O)C6CC6)cc5)CC4)nc3)[C@H](F)C2)cc1 (stereo partly drawn) [Compound 4-12, N-((3,4-trans)-1-(4-cyanobenzyl)-3-fluoropiperidin-4-yl)-6-(4-(4-(cyclopropanecarbonyl)phenyl)piperazine-1-carbonyl)nicotinamide]
1000 to 5000	CS(=O)(=O)c1ccc(CN2CCN(C(=O)c3ccc(C(=O)NC4CCN(Cc5ccc(C#N)cc5)CC4F)cn3)CC2)cc1 (stereo not drawn) [Compound 4-13, N-((3,4-trans)-1-(4-cyanobenzyl)-3-fluoropiperidin-4-yl)-6-(4-(4-(methylsulfonyl)benzyl)piperazine-1-carbonyl)nicotinamide]
< 500	O=C(NC1CCN(Cc2ccc(OC(F)(F)F)cc2)C[C@H]1F)c1ccc(C(=O)N2CCN(c3ccc(S(=O)(=O)N4CCCC4)cc3)CC2)nc1 (stereo partly drawn) [Compound 4-14, N-((3,4-trans)-3-fluoro-1-(4-(trifluoromethoxy)benzyl)piperidin-4-yl)-6-(4-(4-(pyrrolidin-1-ylsulfonyl)phenyl)piperazine-1-carbonyl)nicotinamide]
< 500	O=C(NC1CCN(Cc2ccc(OC(F)(F)F)cc2)C[C@H]1F)c1ccc(C(=O)N2CCN(Cc3ccc(S(=O)(=O)N4CCCC4)cc3)CC2)nc1 (stereo partly drawn) [Compound 4-15, N-((3,4-trans)-3-fluoro-1-(4-(trifluoromethoxy)benzyl)piperidin-4-yl)-6-(4-(4-(pyrrolidin-1-ylsulfonyl)benzyl)piperazine-1-carbonyl)nicotinamide]
< 500	N#Cc1ccc(CN2CCC(NC(=O)c3ccc(C(=O)N4CCN(Cc5ccc(S(=O)(=O)N6CCCC6)cc5)CC4)nc3)CC2)cc1 [Compound 4-16, N-(1-(4-cyanobenzyl)piperidin-4-yl)-6-(4-(4-(pyrrolidin-1-ylsulfonyl)benzyl)piperazine-1-carbonyl)nicotinamide]
1000 to 5000	CCNS(=O)(=O)c1ccc(CN2CCN(C(=O)c3ccc(C(=O)NC4CCN(Cc5ccc(C#N)cc5)CC4)cn3)CC2)cc1 [Compound 4-17, N-(1-(4-cyanobenzyl)piperidin-4-yl)-6-(4-(4-(N-ethylsulfamoyl)benzyl)piperazine-1-carbonyl)nicotinamide]

same assay, conditions: Table 12, compounds of Table 5

EC50 [nM]	Compound
< 1000	COc1ccc(CN2CCC(Oc3ccc(C(=O)NC4CCN(Cc5ccccc5)CC4)cc3Cl)CC2)cc1 [Compound 5-1, N-(1-benzylpiperidin-4-yl)-3-chloro-4-(1-(4-methoxybenzyl)piperidin-4-yloxy)benzamide]
< 1000	COc1cc(C(=O)NC2CCN(Cc3ccccc3)CC2)ccc1OC1CCN(Cc2ccccc2)CC1 [Compound 5-2, N-(1-benzylpiperidin-4-yl)-4-(1-benzylpiperidin-4-yloxy)-3-methoxybenzamide]
> 100000	Cn1cncc1CN1CCC(Oc2ccc(C(=O)NC3CCN(Cc4ccccc4)CC3)cc2)CC1 [Compound 5-4, N-(1-benzylpiperidin-4-yl)-4-(1-((1-methyl-1H-imidazol-5-yl)methyl)piperidin-4-yloxy)benzamide]
50000 to 100000	Cn1cncc1CN1CCC(Oc2ccc(C(=O)NC3CCN(Cc4ccccc4)CC3)cc2Cl)CC1 [Compound 5-5, N-(1-benzylpiperidin-4-yl)-3-chloro-4-(1-((1-methyl-1H-imidazol-5-yl)methyl)piperidin-4-yloxy)benzamide]
< 1000	O=C(NC1CCN(Cc2ccccc2)CC1)c1ccc(OC2CCN(Cc3ccncc3)CC2)c(Cl)c1 [Compound 5-6, N-(1-benzylpiperidin-4-yl)-3-chloro-4-(1-(pyridin-4-ylmethyl)piperidin-4-yloxy)benzamide]
< 1000	COc1cc(C(=O)NC2CCN(Cc3ccccc3)CC2)ccc1OC1CCN(CCCc2ccccc2)CC1 [Compound 5-7, N-(1-benzylpiperidin-4-yl)-3-methoxy-4-(1-(3-phenylpropyl)piperidin-4-yloxy)benzamide]
1000 to 10000	COc1cc(C(=O)NC2CCN(Cc3ccccc3)CC2)ccc1OC1CCN(c2cccs2)CC1 [Compound 5-8, N-(1-benzylpiperidin-4-yl)-3-methoxy-4-(1-(thiophen-2-yl)piperidin-4-yloxy)benzamide]
20000 to 50000	COc1cc(C(=O)NC2CCN(Cc3ccccc3)CC2)ccc1OC1CCN(S(C)(=O)=O)CC1 [Compound 5-9, N-(1-benzylpiperidin-4-yl)-3-methoxy-4-(1-(methylsulfonyl)piperidin-4-yloxy)benzamide]
1000 to 10000	O=C(NC1CCN(Cc2ccccc2)CC1)c1ccc(OC2CCN(c3cccs3)CC2)c(Cl)c1 [Compound 5-10, N-(1-benzylpiperidin-4-yl)-3-chloro-4-(1-(thiophen-2-yl)piperidin-4-yloxy)benzamide]
1000 to 10000	O=C(NC1CCN(Cc2ccccc2)CC1)c1ccc(OC2CCN(c3ccco3)CC2)c(Cl)c1 [Compound 5-11, N-(1-benzylpiperidin-4-yl)-3-chloro-4-(1-(furan-2-yl)piperidin-4-yloxy)benzamide]
